Experimental data published in article PMC6407917, “Identification of GSK3186899/DDD853651 as a Preclinical Development Candidate for the Treatment of Visceral Leishmaniasis” (Journal of Medicinal Chemistry, 2018).

Columns and labels:
Assay in all cases: biochemical
Design in all cases: species or system HEK293/K-562/placenta mixed human extract; Kinobeads chemoproteomic competition binding, quantified by TMT LC-MS/MS, dose response up to 20 uM
STK35 = STK35 (Homo sapiens, UniProt Q8TDR2)
FN3KRP = FN3KRP (Homo sapiens, UniProt Q9HA64)
Sequence of FN3KRP (Q9HA64 whole entry): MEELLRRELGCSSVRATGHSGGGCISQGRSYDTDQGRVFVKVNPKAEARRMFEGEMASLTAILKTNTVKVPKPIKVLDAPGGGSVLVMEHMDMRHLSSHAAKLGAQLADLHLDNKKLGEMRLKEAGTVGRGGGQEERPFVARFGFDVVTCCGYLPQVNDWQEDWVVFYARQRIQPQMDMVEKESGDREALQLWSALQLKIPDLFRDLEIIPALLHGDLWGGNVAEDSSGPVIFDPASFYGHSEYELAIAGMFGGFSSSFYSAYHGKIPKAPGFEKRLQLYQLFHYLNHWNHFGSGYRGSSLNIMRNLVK

TYRO3 = TYRO3 (Homo sapiens, UniProt Q06418)
MAP2K5 = MAP2K5 (Homo sapiens, UniProt Q13163)
MAP2K2 = MAP2K2 (Homo sapiens, UniProt P36507)
IRAK4 = IRAK4 (Homo sapiens, UniProt Q9NWZ3)
TNK2 = TNK2 (Homo sapiens, UniProt Q07912)
Sequence of TNK2 (Q07912 whole entry): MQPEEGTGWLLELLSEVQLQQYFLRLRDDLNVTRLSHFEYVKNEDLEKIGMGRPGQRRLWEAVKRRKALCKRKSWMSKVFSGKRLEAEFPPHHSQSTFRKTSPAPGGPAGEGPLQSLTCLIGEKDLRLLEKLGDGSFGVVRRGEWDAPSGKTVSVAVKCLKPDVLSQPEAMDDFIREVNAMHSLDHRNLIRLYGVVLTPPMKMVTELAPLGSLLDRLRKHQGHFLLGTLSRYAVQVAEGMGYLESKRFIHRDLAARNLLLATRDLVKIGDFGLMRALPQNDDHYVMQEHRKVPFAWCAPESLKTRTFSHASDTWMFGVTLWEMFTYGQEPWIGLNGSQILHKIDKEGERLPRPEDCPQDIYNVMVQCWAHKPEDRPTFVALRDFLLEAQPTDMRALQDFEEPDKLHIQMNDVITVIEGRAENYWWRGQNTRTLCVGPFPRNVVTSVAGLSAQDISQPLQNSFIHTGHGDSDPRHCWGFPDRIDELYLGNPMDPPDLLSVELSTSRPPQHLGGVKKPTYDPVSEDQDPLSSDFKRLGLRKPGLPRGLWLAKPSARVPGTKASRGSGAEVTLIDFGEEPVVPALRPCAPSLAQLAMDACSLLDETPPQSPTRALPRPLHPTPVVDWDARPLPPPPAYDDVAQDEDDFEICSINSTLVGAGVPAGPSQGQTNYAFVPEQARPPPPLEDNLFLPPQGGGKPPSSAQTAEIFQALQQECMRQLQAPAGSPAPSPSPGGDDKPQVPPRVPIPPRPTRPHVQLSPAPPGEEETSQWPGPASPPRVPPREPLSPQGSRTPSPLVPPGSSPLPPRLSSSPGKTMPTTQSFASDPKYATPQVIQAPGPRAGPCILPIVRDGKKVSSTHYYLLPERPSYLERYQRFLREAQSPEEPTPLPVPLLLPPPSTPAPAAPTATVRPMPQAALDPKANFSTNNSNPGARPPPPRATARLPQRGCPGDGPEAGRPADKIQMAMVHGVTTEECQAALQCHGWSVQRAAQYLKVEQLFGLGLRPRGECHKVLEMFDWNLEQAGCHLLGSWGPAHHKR

STK17B = STK17B (Homo sapiens, UniProt O94768)
SYK = SYK (Homo sapiens, UniProt P43405)
ULK1 = ULK1 (Homo sapiens, UniProt O75385)
ERN1 = ERN1 (Homo sapiens, UniProt O75460)
STK39 = STK39 (Homo sapiens, UniProt Q9UEW8)
PIP4K2C = PIP4K2C (Homo sapiens, UniProt Q8TBX8)
Sequence of PIP4K2C (Q8TBX8 whole entry): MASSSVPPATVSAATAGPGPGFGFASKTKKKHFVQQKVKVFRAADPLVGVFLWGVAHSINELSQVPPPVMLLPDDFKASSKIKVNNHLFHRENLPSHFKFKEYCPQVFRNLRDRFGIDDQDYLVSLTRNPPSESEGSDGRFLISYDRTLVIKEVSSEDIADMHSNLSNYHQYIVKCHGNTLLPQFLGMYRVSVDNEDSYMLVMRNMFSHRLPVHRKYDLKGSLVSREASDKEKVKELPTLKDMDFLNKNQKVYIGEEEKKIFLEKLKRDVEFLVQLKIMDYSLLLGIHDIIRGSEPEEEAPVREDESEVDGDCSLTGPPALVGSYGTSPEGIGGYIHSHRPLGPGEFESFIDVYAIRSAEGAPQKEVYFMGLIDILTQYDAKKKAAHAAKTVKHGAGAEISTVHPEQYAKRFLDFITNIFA

SGK3 = SGK3 (Homo sapiens, UniProt Q96BR1)
Sequence of SGK3 (Q96BR1 whole entry): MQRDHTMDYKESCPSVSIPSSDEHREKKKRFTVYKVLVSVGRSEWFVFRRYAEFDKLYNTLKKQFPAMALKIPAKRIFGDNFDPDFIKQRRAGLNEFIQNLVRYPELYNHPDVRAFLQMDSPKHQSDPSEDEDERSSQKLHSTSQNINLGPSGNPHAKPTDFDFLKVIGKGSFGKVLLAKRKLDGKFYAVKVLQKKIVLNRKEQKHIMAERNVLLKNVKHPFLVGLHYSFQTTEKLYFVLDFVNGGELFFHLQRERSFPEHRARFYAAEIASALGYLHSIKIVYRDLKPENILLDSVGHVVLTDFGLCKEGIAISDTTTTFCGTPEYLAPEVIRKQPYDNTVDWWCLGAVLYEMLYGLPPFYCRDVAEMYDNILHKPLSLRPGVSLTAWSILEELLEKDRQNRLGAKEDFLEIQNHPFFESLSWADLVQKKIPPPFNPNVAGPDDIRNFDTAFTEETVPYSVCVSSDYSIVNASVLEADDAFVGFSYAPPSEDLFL

EPHA1 = EPHA1 (Homo sapiens, UniProt P21709)
HCK = HCK (Homo sapiens, UniProt P08631)
Sequence of HCK (P08631 whole entry): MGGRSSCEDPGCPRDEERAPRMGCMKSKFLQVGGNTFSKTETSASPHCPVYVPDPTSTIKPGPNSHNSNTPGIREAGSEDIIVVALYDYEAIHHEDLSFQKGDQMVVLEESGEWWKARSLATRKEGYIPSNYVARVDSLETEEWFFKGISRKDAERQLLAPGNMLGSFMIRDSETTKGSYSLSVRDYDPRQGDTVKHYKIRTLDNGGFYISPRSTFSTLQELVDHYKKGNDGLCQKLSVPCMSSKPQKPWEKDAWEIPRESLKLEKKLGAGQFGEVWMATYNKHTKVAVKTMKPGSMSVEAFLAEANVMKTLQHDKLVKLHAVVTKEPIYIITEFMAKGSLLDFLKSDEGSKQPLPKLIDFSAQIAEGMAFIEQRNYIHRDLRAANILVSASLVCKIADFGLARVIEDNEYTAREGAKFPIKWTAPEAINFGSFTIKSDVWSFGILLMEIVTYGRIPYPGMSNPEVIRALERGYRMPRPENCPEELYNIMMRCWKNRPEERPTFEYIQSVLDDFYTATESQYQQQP

MAP4K3 = MAP4K3 (Homo sapiens, UniProt Q8IVH8)
YES1 = YES1 (Homo sapiens, UniProt P07947)
Sequence of YES1 (P07947 whole entry): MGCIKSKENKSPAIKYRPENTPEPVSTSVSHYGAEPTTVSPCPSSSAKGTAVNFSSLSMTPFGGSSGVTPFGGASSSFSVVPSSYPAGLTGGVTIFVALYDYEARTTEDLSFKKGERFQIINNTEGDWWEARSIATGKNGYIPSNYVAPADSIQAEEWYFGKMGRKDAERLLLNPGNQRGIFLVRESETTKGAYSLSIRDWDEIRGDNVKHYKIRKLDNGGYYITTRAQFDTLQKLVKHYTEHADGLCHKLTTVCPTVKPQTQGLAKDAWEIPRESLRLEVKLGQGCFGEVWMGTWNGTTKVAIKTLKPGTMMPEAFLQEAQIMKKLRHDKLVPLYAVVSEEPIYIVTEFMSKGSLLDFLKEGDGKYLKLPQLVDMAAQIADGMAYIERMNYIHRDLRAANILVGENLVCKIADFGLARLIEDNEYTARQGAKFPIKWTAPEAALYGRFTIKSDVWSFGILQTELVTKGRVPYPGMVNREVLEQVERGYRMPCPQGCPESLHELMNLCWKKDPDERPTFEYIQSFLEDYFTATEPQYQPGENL

CDK2 = CDK2 (Homo sapiens, UniProt P24941)
CDK10 = CDK10 (Homo sapiens, UniProt Q15131)
Sequence of CDK10 (Q15131 whole entry): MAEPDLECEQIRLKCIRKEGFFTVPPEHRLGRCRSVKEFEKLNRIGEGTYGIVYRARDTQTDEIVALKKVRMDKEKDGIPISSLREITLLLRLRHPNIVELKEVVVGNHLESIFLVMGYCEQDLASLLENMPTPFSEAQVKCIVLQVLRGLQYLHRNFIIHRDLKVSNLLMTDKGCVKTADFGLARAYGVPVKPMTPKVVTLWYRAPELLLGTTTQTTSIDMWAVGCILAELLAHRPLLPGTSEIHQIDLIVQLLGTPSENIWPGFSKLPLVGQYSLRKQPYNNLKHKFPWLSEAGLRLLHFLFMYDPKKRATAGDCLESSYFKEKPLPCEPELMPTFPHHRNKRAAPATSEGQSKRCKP

SRC = SRC (Homo sapiens, UniProt P12931)
Sequence of SRC (P12931 whole entry): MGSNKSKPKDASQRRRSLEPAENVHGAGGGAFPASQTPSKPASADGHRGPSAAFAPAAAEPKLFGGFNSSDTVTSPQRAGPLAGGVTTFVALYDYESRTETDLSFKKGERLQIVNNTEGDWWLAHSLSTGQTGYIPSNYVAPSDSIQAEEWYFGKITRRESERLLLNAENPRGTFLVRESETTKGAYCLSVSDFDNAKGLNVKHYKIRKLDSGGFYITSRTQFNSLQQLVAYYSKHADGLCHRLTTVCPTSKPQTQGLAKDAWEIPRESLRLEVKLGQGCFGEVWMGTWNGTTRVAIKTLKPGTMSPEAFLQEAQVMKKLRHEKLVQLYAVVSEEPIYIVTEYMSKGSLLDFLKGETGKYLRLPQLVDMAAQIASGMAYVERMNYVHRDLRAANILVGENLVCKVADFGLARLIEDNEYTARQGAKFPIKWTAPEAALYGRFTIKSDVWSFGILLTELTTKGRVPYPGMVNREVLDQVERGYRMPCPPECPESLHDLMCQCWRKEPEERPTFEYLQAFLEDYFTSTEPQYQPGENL

Measured: IC50

Sequence of STK35 (Q8TDR2 whole entry): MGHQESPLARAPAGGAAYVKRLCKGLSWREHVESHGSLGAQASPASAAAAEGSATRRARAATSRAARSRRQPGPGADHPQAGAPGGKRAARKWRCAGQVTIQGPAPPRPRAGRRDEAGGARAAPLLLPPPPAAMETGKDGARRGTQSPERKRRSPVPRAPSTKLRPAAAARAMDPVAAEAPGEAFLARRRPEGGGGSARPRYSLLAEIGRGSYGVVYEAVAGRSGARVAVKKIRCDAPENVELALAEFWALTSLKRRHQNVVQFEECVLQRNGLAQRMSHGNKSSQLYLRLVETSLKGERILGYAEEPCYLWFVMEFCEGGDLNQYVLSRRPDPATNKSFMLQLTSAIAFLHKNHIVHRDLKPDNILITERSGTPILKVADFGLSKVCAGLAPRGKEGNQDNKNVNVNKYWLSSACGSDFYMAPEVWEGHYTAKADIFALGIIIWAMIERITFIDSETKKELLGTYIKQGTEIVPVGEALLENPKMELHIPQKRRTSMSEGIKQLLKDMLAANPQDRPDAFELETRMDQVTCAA

COc1nc(N[C@H]2CC[C@H](NS(=O)(=O)CC(C)C)CC2)nc2[nH]nc(N3CCOC[C@H]3C)c12 [compound 39, N-(trans-4-((4-Methoxy-3-((R)-3-methylmorpholino)-1H-pyrazolo[3,4-d]pyrimidin-6-yl)amino)cyclohexyl)-2-methylpropane-1-sulfonamide]
4.5 µM: CDK2
≥ 20 µM: all other assays above
